The text below walks through data of patent publication US20080064088A1, “DEVICES AND METHODS FOR PHARMACOKINETIC-BASED CELL CULTURE SYSTEM” (priority 2006, published 2008).

The subject of data set [1] is HepG2/C3A cells. Kind of data set: LIVE/DEAD assay on poly-D-lysine treated glass coverslips. Type of data set: cell-based, human. Particulars: 1 μM, 24 hours. The text has this: (§1) LIVE/DEAD stain is a two-component stain consisting of calcein AM and ethidium homodimer. Living cells actively hydrolyze the acetoxymethyl ester (AM) moiety of calcein AM to produce bright green fluorescence of calcein. In contrast, cells that have compromised membrane integrity allow the normally membrane impermeant ethidium homodimer to stain the nucleus of dead or dying cells fluorescent red. The cell permeant nuclear stain, Hoechst 33342 acts as a general stain for all cells. Together with the appropriate filter sets, living cells fluoresce green, dying or dead cells red, and all cells are quantified by a blue nuclear fluorescence. For experiments described herein, trypan blue was used at 0.2% (w/v), calcein AM at 1:20,000, propidium iodide at 1:5,000, and Hoechst 33342 at 10 μg/ml. Cells were visualized with a M2Bio stereofluorescence microscope (Zeiss). All experiments were repeated at least three times and measurements done in triplicate.
The LIVE/DEAD assay was optimized (see Methods section) using cells grown on glass coverslips. Briefly, HepG2/C3A cells were seeded onto poly-D-lysine treated glass coverslips and treated with and without 1 μM staurosporine for 24 hours. […]

Data set [2] deals with HCT116 cells. Kind of data set: LIVE/DEAD cytotoxicity assay on microscale chip system. Type of data set: cell-based, human. The conditions noted are these: 1 μM, 24 hour treatment, compared to untreated control cell chips.
From the text: as §1
Two different assays to detect apoptosis were investigated. The first assay was the immunofluorescence-based terminal deoxynucleotidyl transferase BrdU nick end labeling (TUNEL) technique available in kit form as APOPTAG™ (Intergen Co., MA) (see Methods section).

For data set [3], the system named is HepG2/C3A cells. As to the kind of experiment: APOPTAG (TUNEL) apoptosis assay on glass coverslips. Type of data set: cell-based, human. Particulars: 1 μM, 24-hour incubation, compared to untreated controls. The text has this: (§2) In contrast to annexin V labeling, the APOPTAG™ kit (Intergen Co., MA) uses terminal deoxynucleotidyl transferase to label free 3′-OH DNA termini exposed during apoptotic DNA degradation and visualization using immunofluorescence (Li, X., Traganos, F., Melamed, M. R., and Darzynkiewicz, Z. (1995). Single-step procedure for labeling DNA strand breaks with flourescein-or BODIPY-conjugated deoxynucleotides: detection of apoptosis and bromodeoxyuridine incorporation. Cytometry 20, 172-180). Although this method is highly specific for apoptosis, the procedure cannot be done on-chip due to the fixation and incubation steps. Briefly, microscale chips were run under specified experimental conditions, the cell chips were removed from their housing units, fixed in 1% paraformaldehyde and processed with the APOPTAG™ kit using the manufacturer's protocol.
(§3) Two different assays to detect apoptosis were investigated. The first assay was the immunofluorescence-based terminal deoxynucleotidyl transferase BrdU nick end labeling (TUNEL) technique available in kit form as APOPTAG™ (Intergen Co., MA) (see Methods section). The assay was first optimized using cells grown on glass coverslips. Briefly, HepG2/C3A cells were seeded onto poly-D-lysine treated glass coverslips and treated with and without staurosporine. Coverslips were processed as described (see Methods section). […]

For data set [4], the system named is HCT116 cells. As to the kind of experiment: APOPTAG (TUNEL) apoptosis assay on microscale chip system. Type of data set: cell-based, human. Particulars: 1 μM, 24 hour exposure, compared to untreated controls.
From the text: as §2, §3

In data set [5] the test system is HepG2/C3A cells in the liver compartment and HCT116 cells in the target tissues compartment. As to the kind of experiment: Annexin V-FITC apoptosis assay on microscale chip system. Type of data set: cell-based, human. The conditions noted are these: 1 μM, 6-hour treatment, compared to untreated control cell chips.
Protocol: With the microscale chip, annexin V-FITC labeling was visualized directly on-chin, by first flushing the system with PBS, then recirculating annexin V-FITC (10 μg/ml in annexin V binding buffer, Clontech) for 30 min. Cells were then visualized directly using a FITC filter set.
The annexin V-FITC was used to detect apoptosis in the microscale chip system as described in the Methods section. Briefly, the microscale chip cell chips were seeded with HepG2/C3A cells in the liver compartment and HCT116 cells in the target tissues compartment. Cell chips were loaded onto the microscale chip system and treated with and without 1 μM staurosporine as described above. After a 6-hour incubation, the re-circulating medium was switched to PBS containing Annexin V-FITC and Hoechst 33342 and allowed to flow through the system for 30 minutes. Cell chips were removed from the acrylic housing and visualized under a fluorescent microscope. Cells were visualized under a fluorescent microscope and fluorescent images of identical fields were obtained using the appropriate filter sets.
Data set [6] relates to HT29 human colon cancer cells. As to the kind of experiment: Microscale chip, HepG2-C3A liver compartment and HT29 target tissue compartment, live/dead fluorescence. It is filed as cell-based. The conditions noted are these: 24 hours; for efficacy against HT-29 colon cancer cells (mutant p53) in the chip: chip with HepG2-C3A liver compartment.
From the text: as §1

For data set [7], the system named is HCT-116 human colon cancer cells. The conditions noted are these: for cell death of HCT-116 cells, chip seeded with HCT-116 cells only: no cells in the liver compartment, 24 hours. As to the method:
FIG. 16 Tegafur dose response. […] The chips were treated with indicated concentrations of tegafur for 24 hours. The first graph (FIG. 16A) is a plot of percentage dead cells vs. tegafur or 5-FU concentration after 24 hours of re-circulation on the chip. The second graph (FIG. 16B) is a similar dose response using a traditional in vitro cell culture assay with HCT 116 cells using a 48 hour exposure. HCT-116 cells were seeded on poly-lysine treated glass coverslips and exposed to either tegafur or 5-FU at the indicated concentrations. After a 48 hr incubation, coverslips were treated as described above and the percentage of cell death was determined.
as §1
[…] Tegafur was added to the re-circulating medium at various concentrations for 24 hours and the cells labeled with Hoechst 33342, a membrane permeable DNA dye, and ethidium homodimer, a membrane impermeable DNA dye (see Methods Section).

Data set [8] deals with HCT-116 cells. As to the kind of experiment: Traditional in vitro cell culture assay, HCT-116 on poly-lysine treated glass coverslips. Particulars: for cytotoxicity to HCT-116 cells, traditional cell culture assay: 48 hr incubation. It is filed as cell-based, human. The method, then:
FIG. 16 Tegafur dose response. Chips were seeded with HepG2-C3A cells in the liver compartment and HCT-116 colon cancer cells in the target tissues compartment. The chips were treated with indicated concentrations of tegafur for 24 hours. The first graph (FIG. 16A) is a plot of percentage dead cells vs. tegafur or 5-FU concentration after 24 hours of re-circulation on the chip. The second graph (FIG. 16B) is a similar dose response using a traditional in vitro cell culture assay with HCT 116 cells using a 48 hour exposure. HCT-116 cells were seeded on poly-lysine treated glass coverslips and exposed to either tegafur or 5-FU at the indicated concentrations. After a 48 hr incubation, coverslips were treated as described above and the percentage of cell death was determined.
To measure the cytotoxic effects of tegafur against colon cancer cells, the microscale chip was prepared with HepG2-C3A cells in the liver compartment and HCT-116 human colon cancer cells in the target tissue compartment. Tegafur was added to the re-circulating medium at various concentrations for 24 hours and the cells labeled with Hoechst 33342, a membrane permeable DNA dye, and ethidium homodimer, a membrane impermeable DNA dye (see Methods Section).

The structures appear in SMILES notation. Entries after “also recorded” stand apart in the source; their conditions may differ.

For the molecule `CN[C@@H]1C[C@H]2O[C@@](C)([C@@H]1OC)n1c3ccccc3c3c4c(c5c6ccccc6n2c5c31)C(=O)NC4` [Staurosporine], the “cell death of HepG2/C3A cells (LIVE/DEAD)” value in data set [1] is on record as “clearly cause cell death”. Further, the “cell death of HCT116 cells (LIVE/DEAD) on chip” value in data set [2] was “Significant cell death; also recorded: significant apoptosis (or cytotoxicity)”. In data set [3], the “apoptosis of HepG2/C3A cells (APOPTAG)” value is on record as “significant apoptosis”. Also, in data set [4], the “apoptosis of HCT116 cells (APOPTAG) on chip” value was “significant apoptosis (or cytotoxicity)”. The “apoptosis (annexin V-FITC) on chip” value in data set [5] was “significant apoptosis”.
For `O=c1[nH]c(=O)n(C2CCCO2)cc1F` (stereo not drawn) [Tegafur, 5-fluoro-1-(2-tetrahydrofuryl)-2,4(1H,3H)-pyrimidinedione], the “efficacy against HT-29 colon cancer cells (mutant p53) in the chip” value in data set [6] is “ineffective”. In data set [7], the “cytotoxicity to HCT-116 cells in the microscale chip” value is listed as “cytotoxic to HCT-116 cells in a dose-dependent fashion”; the “exposure at which cytotoxicity was observed, microscale chip” value was found to be 24 h; the “cell death of HCT-116 cells, chip seeded with HCT-116 cells only” value was “did not cause significant cell death”. In addition, the “cytotoxicity to HCT-116 cells, traditional cell culture assay” value in data set [8] was “ineffective”.
Turning to `CC1=C(CC(=O)O)c2cc(F)ccc2/C1=C\c1ccc([S+](C)[O-])cc1` (stereo not drawn) [Sulindac, sulindac sulfoxide], in data set [6] (One hundred micromoles in re-circulating medium, absence of the HepG2-C3A liver cells), the “cell death of HT29 cells in the chip” value is given as “minimal levels of cell death”. Further, the “efficacy against HT-29 colon cancer cells (mutant p53) in the chip” value in data set [6] is listed as “effective”.
For `O=c1[nH]cc(F)c(=O)[nH]1` [5-FU, 5-fluorouracil], in data set [7], the “cell death of HCT-116 cells, chip seeded with HCT-116 cells only” value was “caused substantial cell death”. Moreover, in data set [8], the “exposure at which cytotoxicity was observed, traditional cell culture assay” value was found to be 48 h and the “cytotoxicity to HCT-116 cells, traditional cell culture assay” value was “triggered cell death”.
